For 69 compounds, EC50, IC50 and outcome results are on record in PubChem BioAssay AID179 (DTP/NCI, 2004).

This experiment deals with CEM cells HIV-1 protection, formazan growth assay. Kind of experiment: NCI AIDS Antiviral Assay. As to conditions: for IC50: measured here: growth of uninfected CEM cells. The method, boiled down:
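Human CEM cells, uninfected and HIV-1-infected, received five drug concentrations, and growth was read by soluble formazan assay. Compounds giving at least 50% protection were retested; reproducible 100% protection defined confirmed active.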

Several values for one entry are separate records, joined by “and”; a condition that tells them apart may be missing. Equal entries are not always repeated. Activity calls are given as the source filed them.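 Rule for the calls: active = compounds giving half or more protection of infected cells from virus-caused growth loss, again on retest; inactive = the rest.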

Take `O=S(=O)(O)C(I)(I)S(=O)(=O)O`: the EC50 is more than 200 µM and the half-inhibitory concentration (IC50) was more than 200 µM. For `O=C(Nc1cc(Cl)cc(Cl)c1)/C(Cc1nc2ccccc2[nH]c1=O)=N/NC(=O)c1ccncc1`, the EC50 was more than 132 µM and the 50% inhibitory concentration (IC50) is more than 132 µM. Regarding `COc1cc(OC)cc(Oc2nc3cc(F)c(F)cc3nc2-c2ccccc2)c1`, the EC50 was more than 200 µM and the IC50 was more than 200 µM. Take `COc1ccc(NC(=O)CC(=O)N2N=C(N3CCCCC3)CC2c2ccccc2)cc1` (configuration not stated): the EC50 was more than 200 µM and the IC50 is more than 200 µM. Turning to `CC(=O)NNc1nc(C)c(C(=O)/C=C/c2cccc([N+](=O)[O-])c2)s1`, the EC50 was 70.8 µM and the half-inhibitory concentration (IC50) is 75.9 µM. Turning to `COc1ccc(SCc2ccc(C(=O)O)cc2[N+](=O)[O-])cc1`, the EC50 was more than 295 µM and the IC50 amounted to 162 µM.

`CC1(C)CC(=O)c2c(ccc(C(=O)C[C@@H](N)CO)c2N)O1`: the result was inactive.

For the compound `Cn1nnc2c(C(N)=O)ncn2c1=O`, the EC50 is more than 1290 µM and the IC50 worked out at 776 µM. Turning to `C[N+](C)(C)CC1CCC(C[N+](C)(C)C)C1=O` (configuration not stated), the outcome was inactive.

For the compound `Cc1ccc(=O)n(Cc2ccccc2)n1`, the EC50 is more than 1260 µM and the 50% inhibitory concentration (IC50) was 912 µM. Turning to `CCOC(=O)NNC(=O)NCCNC(=O)NNC(=O)OCC`, the EC50 is more than 200 µM and the 50% inhibitory concentration (IC50) is more than 200 µM.

Turning to `O=C(c1ccccc1)c1nnn(Cc2cccc(Cl)c2)c1C(=O)c1ccccc1`, the EC50 was more than 12.9 µM and the IC50 is more than 12.9 µM. Consider `C=CCOc1ccc(C2C(C(=O)OC)C(=O)CC(O)(c3ccccc3)C2C(=O)OC)cc1OC` (configuration not stated), for which the EC50 is more than 100 µM and the IC50 was more than 100 µM. For `CCOC(=O)c1c(N=P(c2ccccc2)(c2ccccc2)c2ccccc2)nnc(-c2ccccc2)c1-c1ccccc1`, the EC50 was more than 100 µM and the IC50 was more than 100 µM. Turning to `O=c1oc2ccccc2c(O)c1C(c1ccc(/C=C/c2ccccc2)cc1)c1c(O)c2ccccc2oc1=O`, the EC50 is more than 200 µM and the IC50 came out at 15.1 µM.

Turning to `C=C(C)CC1(O)C(=O)C(OCC)=C1OCC` (configuration not stated), the EC50 is more than 200 µM and the 50% inhibitory concentration (IC50) was more than 200 µM. As for `O=C(O)/C=C/C(=O)Nc1ccccc1-n1cccc1`, the EC50 is more than 200 µM and the IC50 was more than 200 µM.

`CCCN(CCC)C(=O)c1c(N2CCN(C)CC2)c2cccnc2n2c(C)cnc12`: the EC50 was more than 200 µM and the 50% inhibitory concentration (IC50) was more than 200 µM. Take `Cc1cc(=O)[nH]c(CNC(=O)c2ccc3ccccc3c2)n1`: the EC50 was more than 123 µM and the half-inhibitory concentration (IC50) is more than 123 µM. `COC(=O)c1cc(CC(C)C)c2c(c1)[nH]c1ccccc12`: the EC50 is more than 35.5 µM and the 50% inhibitory concentration (IC50) was more than 35.5 µM. In the case of `Cc1nn(C(=O)c2ccccc2O)c2c1C(c1ccc(O)cc1O)SC(N)=N2` (configuration not stated), the EC50 is more than 2 µM and the IC50 was 0.331 µM.

Turning to `Cc1ccc([P+](Cc2ccccc2)(c2ccc(C)cc2)c2ccc(C)cc2)cc1`, the EC50 is more than 200 µM and the half-inhibitory concentration (IC50) amounted to 0.851 µM. As to `COC12C(COC(=O)NCCO)C3=C(C(=O)C(C)=C(N)C3=O)N1CC1NC12` (configuration not stated), the EC50 was more than 331 µM and the half-inhibitory concentration (IC50) was 1.15 µM.

As to `COc1ccccc1C(C(=O)NC1CN2CCC1CC2)c1ccsc1` (configuration not stated), the EC50 was more than 200 µM and the IC50 was found to be 151 µM.

In the case of `CC(c1ccccc1)N1CC(=O)N([C@H](C)c2ccccc2)C1=O` (some centres not stated), the EC50 was more than 200 µM and the IC50 is more than 200 µM.

Consider `O=C1c2c([N+](=O)[O-])cc(S(=O)(=O)O)c(O)c2C(=O)c2c([N+](=O)[O-])cc(S(=O)(=O)O)c(O)c21`, for which the result was inactive. In the case of `Cn1c2c(c3ccccc31)CCN(CCCCN1CCN(c3cccc(Cl)c3)CC1)C2=O`, the EC50 was more than 11 µM and the half-maximal inhibitory concentration (IC50) is more than 11 µM. Turning to `O=C(CC1(O)C(=O)Nc2c(Cl)cc(Cl)cc21)c1ccc(Br)cc1` (configuration not stated), the EC50 is more than 26.9 µM and the IC50 worked out at 15.8 µM. With `Oc1c2c(c(O)c3ccccc13)C1(N=N2)c2ccccc2Oc2ccccc21`, the outcome was inactive. As for `O=C1NC(=O)/C(=C/c2ccc(S(=O)(=O)N/N=C\C(O)C(O)C(O)CO)cc2)N1` (configuration not stated), the EC50 was more than 200 µM; the half-inhibitory concentration (IC50) is 135 µM and 191 µM.

Regarding `CCOC(=O)CCC(NC(=O)c1ccc(N=Cc2nc3ccccc3nc2-c2ccccc2)cc1)C(=O)OCC` (configuration not stated), the EC50 is more than 12.6 µM and the IC50 was more than 12.6 µM. In the case of `CN1CCn2c(Br)ccc2C1=O`, the EC50 is more than 1100 µM and the half-maximal inhibitory concentration (IC50) came to 64.6 µM. Take `COC(=O)c1cc(C(=C2CC2)c2cc(Br)c(OC)c(C(=O)OC)c2)cc(Br)c1OC`: the EC50 was more than 200 µM and the half-maximal inhibitory concentration (IC50) came out at 14.1 µM.

With `CC1(C)C=C(/C=N/Nc2ccc(Br)cc2)C(C#N)=C(O)C1(C#N)C#N`, the EC50 was more than 200 µM and the concentration for half-maximal inhibition (IC50) was 28.8 µM. Take `Cn1c(=O)n2n(c1=O)[C@@H](c1ccccc1)[C@H]2c1ccccc1`: the EC50 was more than 200 µM and the concentration for half-maximal inhibition (IC50) is 91.2 µM. Take `CCOC(=O)CC(Sc1ccccc1)Sc1ccccc1`: the outcome was inactive. Take `Cc1cn(C2CC(S(=O)c3ccccc3)C(CO)O2)c(=O)[nH]c1=O` (configuration not stated): the EC50 was more than 200 µM and the concentration for half-maximal inhibition (IC50) was more than 200 µM. `CC(=O)Oc1cc(OC(C)=O)c2c(C)cc(=O)oc2c1`: the EC50 is more than 200 µM and the IC50 was 148 µM. In the same order, the values of `Cc1cc2c(cc1C)C(=O)C(=O)N2` are more than 148 µM and more than 148 µM. In the same order, the values of `O=C1NCc2c1[nH]c(=O)[nH]c2=O` are more than 155 µM and more than 155 µM. On to `CC(C)N(C(C)C)[PH+]1O[PH+](N(C(C)C)C(C)C)O[PH+](N(C(C)C)C(C)C)O[PH+](N(C(C)C)C(C)C)O1.[C-]#[O+].[C-]#[O+].[C-]#[O+].[C-]#[O+].[C-]#[O+].[C-]#[O+].[C-]#[O+].[C-]#[O+].[Mo].[Mo]` (configuration not stated), for which the EC50 was more than 35.5 µM and the concentration for half-maximal inhibition (IC50) is more than 35.5 µM.

`CCOC(=O)CN(c1scc(-c2ccccc2)c1C(=O)OCC)S(=O)(=O)c1ccc(C)cc1`: the EC50 is more than 200 µM and the IC50 was found to be 9.33 µM. Consider `CS(=O)(=O)Oc1cccc(/C=N/N=C(\N)NO)c1`, for which the EC50 is more than 214 µM and the IC50 came out at 36.3 µM. With `CN(C)c1ccc(/C=C(\C#N)C(=O)c2ccccc2)cc1`, the EC50 was more than 29.5 µM and the IC50 worked out at 6.17 µM. `CC(=O)[CH-]C(=O)c1ccccc1.CC(=O)[CH-]C(=O)c1ccccc1.CC(=O)[CH-]C(=O)c1ccccc1.[Tl+3]`: the EC50 was more than 138 µM and the 50% inhibitory concentration (IC50) is 49 µM. The like results for `CC12CCC3C(CCC4=CC(OC5OC(CO)C(O)C(O)C5O)CCC43C=O)C1(O)CCC2c1ccc(=O)oc1` (configuration not stated) were, in that order, more than 0.02 µM and 0.00316 µM. For the compound `CCCCN(Cc1ccccc1)C(=NC#N)N(Cc1ccccc1)Cc1ccccc1`, the EC50 was more than 4.9 µM and the 50% inhibitory concentration (IC50) is more than 4.9 µM. Turning to `CC(C)C(=O)Nc1nc2c(ncn2C2OC(CO)C(O)C2O)c(=O)[nH]1` (configuration not stated), the EC50 was more than 708 µM and the IC50 stood at 513 µM. Take `CSC1=C(C#N)C(=O)N(c2ccc(C)cc2)C(=O)C1C#N` (configuration not stated): the EC50 was more than 200 µM and the IC50 was 151 µM. The like results for `Clc1ccc(-n2nnc(C3=NCCCN3)c2-c2ccccc2)cc1` were, in that order, 129 µM and 148 µM. On to `CC1(C)CNC[C@]2(C)OCCCO[C@@]3(C)CNCC(C)(C)NC(=O)[C@](C)(CNCC(C)(C)NC3=O)OCCCO[C@](C)(CNCC(C)(C)NC2=O)C(=O)N1`, for which the EC50 was more than 200 µM and the IC50 was more than 200 µM. Take `CCN(CC)Cc1cc(Nc2c3ccccc3nc3c4ccccc4n(C)c23)cc(CN(CC)CC)c1O`: the EC50 was more than 155 µM and the IC50 turned out to be 3.09 µM.

Regarding `CCCCN(CCCC)CC(C(C)=O)C(c1ccccc1)c1c(O)c2ccccc2oc1=O` (configuration not stated), the EC50 was more than 41.7 µM and the IC50 is more than 41.7 µM. Turning to `O=c1c(-c2ccc(O)c(O)c2)coc2cc(O)cc(O)c12`, the EC50 is more than 200 µM and the IC50 was found to be 15.8 µM. For the compound `CC(=O)Oc1c(OC(C)C)c(C)c(O[Si](C(C)C)(C(C)C)C(C)C)c2[nH]c3ccccc3c12`, the EC50 is more than 100 µM and the IC50 is 13.5 µM. For the compound `C=C1c2nc3ccccc3n2C=C(c2ccc(C)cc2)N1c1ccc(C)cc1`, the EC50 was more than 200 µM and the IC50 was 26.9 µM.

On to `Cc1nc(C)c(C(=O)NNC(N)=S)cc1C(=O)NNC(N)=S`, for which the EC50 is more than 200 µM and the IC50 was more than 200 µM. Take `CCCCC(C(=O)CCC(=O)Nc1ccc(Cl)cc1)C(=O)C(C)C` (configuration not stated): the EC50 was more than 186 µM and the concentration for half-maximal inhibition (IC50) is more than 186 µM. Turning to `CC(=O)OC1CCCn2c1nc1c2C(=O)C(C)=C(N2CC2)C1=O` (configuration not stated), the outcome was inactive. Regarding `CCc1ccccc1NC(=O)C1=C(C)NC(C)=C(C(=O)Nc2ccccc2CC)C1c1ccc2c(c1)OCO2`, the EC50 is more than 13.8 µM and the 50% inhibitory concentration (IC50) was more than 13.8 µM.

On to `O=[N+]([O-])c1cc(/C=N\NS(=O)(=O)c2ccc(Cl)cc2)c(O)c([N+](=O)[O-])c1`, for which the EC50 was more than 617 µM and the IC50 came out at 34.7 µM. In the same order, the values of `CC1CC(Nc2ccc(NC3=CC(=O)OC(C)C3)cc2)=CC(=O)O1` (configuration not stated) are more than 200 µM and more than 200 µM. The like results for `COc1ccc2c(=O)c(C)c(/C=C/c3ccco3)oc2c1` were, in that order, more than 158 µM and 27.5 µM. Take `O=c1c(F)cn(Cc2c(Cl)cccc2Cl)c(=O)n1Cc1c(Cl)cccc1Cl`: the EC50 was more than 200 µM and the 50% inhibitory concentration (IC50) is 47.9 µM.

Take `CC(=O)C1(N=Nc2ccc(S(=O)(=O)Nc3nnc(C)s3)cc2)CCOC1=O` (configuration not stated): the EC50 is more than 200 µM and the half-inhibitory concentration (IC50) is more than 200 µM. Consider `COC(=O)C(=O)C(C(=O)C(=O)Nc1cc([N+](=O)[O-])ccc1[N+](=O)[O-])c1nc2ccc(C(=O)c3ccccc3)cc2[nH]c1=O` (configuration not stated), for which the EC50 was more than 158 µM and the 50% inhibitory concentration (IC50) was 83.2 µM. On to `CC(C)NCCCNc1c2ccccc2nc2cccc([N+](=O)[O-])c12`, for which the EC50 is more than 0.2 µM and the IC50 amounted to 0.0316 µM.

Consider `O=C(Nc1ccc(Cl)cc1)NC(O)C(Cl)(Cl)Cl` (configuration not stated), for which the EC50 is more than 200 µM and the IC50 amounted to 148 µM. `C#CCOCC12C=CC(O1)C1C(=O)OCC12` (configuration not stated): the EC50 is more than 200 µM and the half-inhibitory concentration (IC50) is more than 200 µM.
